According to ChEMBL document CHEMBL5291721, “A preclinical secondary pharmacology resource illuminates target-adverse drug reaction associations of marketed drugs” (Nat Commun, 2023):

Tests used:
[1] = biological target: T1, Alpha-1A adrenergic receptor (Homo sapiens, UniProt P35348); format: functional, cell-based
T1 sequence (P35348 whole entry): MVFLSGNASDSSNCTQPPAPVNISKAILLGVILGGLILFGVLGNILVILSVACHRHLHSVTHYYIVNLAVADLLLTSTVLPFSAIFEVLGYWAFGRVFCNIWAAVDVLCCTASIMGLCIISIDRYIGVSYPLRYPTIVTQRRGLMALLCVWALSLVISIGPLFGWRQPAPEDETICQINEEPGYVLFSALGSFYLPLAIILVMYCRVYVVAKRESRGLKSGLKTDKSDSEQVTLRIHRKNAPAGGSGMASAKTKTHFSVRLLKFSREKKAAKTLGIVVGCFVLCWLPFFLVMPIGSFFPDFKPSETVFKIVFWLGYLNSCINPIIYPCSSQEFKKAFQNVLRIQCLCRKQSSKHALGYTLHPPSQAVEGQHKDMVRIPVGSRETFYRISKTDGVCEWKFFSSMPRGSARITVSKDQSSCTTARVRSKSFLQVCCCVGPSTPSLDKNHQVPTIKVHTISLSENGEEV

[2] = biological target: Gamma-aminobutyric acid receptor subunit alpha-1 (Rattus norvegicus, UniProt P62813)
[3] = biological target: 5-hydroxytryptamine receptor 2B (Homo sapiens, UniProt P41595); format: functional, cell-based
5-hydroxytryptamine receptor 2B, sequence (P41595 whole entry): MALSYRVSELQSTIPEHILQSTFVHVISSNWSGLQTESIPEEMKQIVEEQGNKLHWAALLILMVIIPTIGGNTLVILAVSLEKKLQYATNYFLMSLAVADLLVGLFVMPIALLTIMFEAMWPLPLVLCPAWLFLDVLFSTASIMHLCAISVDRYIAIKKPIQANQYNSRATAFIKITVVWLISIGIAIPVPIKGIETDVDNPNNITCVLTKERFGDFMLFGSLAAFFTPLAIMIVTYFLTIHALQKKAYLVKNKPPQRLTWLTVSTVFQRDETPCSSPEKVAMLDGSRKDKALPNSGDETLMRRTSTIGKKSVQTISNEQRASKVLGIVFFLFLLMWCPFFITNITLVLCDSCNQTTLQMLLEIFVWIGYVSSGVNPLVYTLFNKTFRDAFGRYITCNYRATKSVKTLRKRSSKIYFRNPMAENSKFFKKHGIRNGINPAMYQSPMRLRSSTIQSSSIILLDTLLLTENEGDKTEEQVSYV

[4] = biological target: Prostaglandin G/H synthase 1 (Homo sapiens, UniProt P23219); format: functional
Prostaglandin G/H synthase 1, sequence (P23219 whole entry): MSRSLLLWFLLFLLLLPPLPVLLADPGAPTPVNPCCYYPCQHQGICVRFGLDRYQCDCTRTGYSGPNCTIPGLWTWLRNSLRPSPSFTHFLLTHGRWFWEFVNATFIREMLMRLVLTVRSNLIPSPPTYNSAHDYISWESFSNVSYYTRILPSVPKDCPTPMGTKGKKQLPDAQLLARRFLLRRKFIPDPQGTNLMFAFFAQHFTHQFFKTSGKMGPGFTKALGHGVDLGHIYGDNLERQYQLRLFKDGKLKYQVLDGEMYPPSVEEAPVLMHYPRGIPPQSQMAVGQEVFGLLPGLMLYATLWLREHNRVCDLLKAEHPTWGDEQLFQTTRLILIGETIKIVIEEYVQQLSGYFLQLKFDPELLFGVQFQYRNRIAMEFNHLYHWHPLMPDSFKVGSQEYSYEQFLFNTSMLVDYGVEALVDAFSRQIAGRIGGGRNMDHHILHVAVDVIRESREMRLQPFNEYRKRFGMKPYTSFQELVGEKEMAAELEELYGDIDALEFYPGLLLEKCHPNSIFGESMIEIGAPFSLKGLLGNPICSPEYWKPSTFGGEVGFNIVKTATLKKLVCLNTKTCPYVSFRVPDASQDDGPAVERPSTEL

Estrogen receptor = biological target: T2, Estrogen receptor (Homo sapiens, UniProt P03372)
T2 sequence (P03372 whole entry): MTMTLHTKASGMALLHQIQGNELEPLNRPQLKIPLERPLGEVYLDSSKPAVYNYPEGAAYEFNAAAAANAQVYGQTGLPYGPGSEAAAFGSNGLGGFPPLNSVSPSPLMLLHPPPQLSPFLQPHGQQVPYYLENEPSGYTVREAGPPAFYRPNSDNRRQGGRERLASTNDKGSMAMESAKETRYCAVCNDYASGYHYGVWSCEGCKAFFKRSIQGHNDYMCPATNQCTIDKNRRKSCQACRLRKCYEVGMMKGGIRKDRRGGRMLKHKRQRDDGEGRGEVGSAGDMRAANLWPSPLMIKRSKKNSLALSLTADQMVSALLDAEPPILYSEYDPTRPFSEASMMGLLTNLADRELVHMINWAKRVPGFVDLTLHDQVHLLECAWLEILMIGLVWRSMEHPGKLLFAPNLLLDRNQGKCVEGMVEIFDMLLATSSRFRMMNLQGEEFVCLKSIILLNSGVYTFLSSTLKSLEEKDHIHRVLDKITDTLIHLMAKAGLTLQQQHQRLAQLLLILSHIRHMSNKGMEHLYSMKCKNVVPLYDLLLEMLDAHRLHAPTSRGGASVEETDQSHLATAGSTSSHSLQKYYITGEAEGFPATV

Adenosine receptor A3 [5] = biological target: T3, Adenosine receptor A3 (Homo sapiens, UniProt P0DMS8)
T3 sequence (P0DMS8 whole entry): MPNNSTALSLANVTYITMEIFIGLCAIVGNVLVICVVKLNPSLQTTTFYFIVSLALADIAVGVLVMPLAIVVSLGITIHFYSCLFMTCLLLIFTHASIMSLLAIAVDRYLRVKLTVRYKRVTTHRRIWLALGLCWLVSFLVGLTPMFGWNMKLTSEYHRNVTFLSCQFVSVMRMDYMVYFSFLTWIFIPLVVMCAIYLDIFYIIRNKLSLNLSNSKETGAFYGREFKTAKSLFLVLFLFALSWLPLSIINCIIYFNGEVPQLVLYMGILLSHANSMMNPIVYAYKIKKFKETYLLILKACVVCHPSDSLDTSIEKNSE

[6] = biological target: Sodium-dependent dopamine transporter (Homo sapiens, UniProt Q01959)
[7] = biological target: Voltage-gated inwardly rectifying potassium channel KCNH2 (Homo sapiens, UniProt Q12809); format: functional; details: read-out: AC50
Voltage-gated inwardly rectifying potassium channel KCNH2, sequence (Q12809 whole entry): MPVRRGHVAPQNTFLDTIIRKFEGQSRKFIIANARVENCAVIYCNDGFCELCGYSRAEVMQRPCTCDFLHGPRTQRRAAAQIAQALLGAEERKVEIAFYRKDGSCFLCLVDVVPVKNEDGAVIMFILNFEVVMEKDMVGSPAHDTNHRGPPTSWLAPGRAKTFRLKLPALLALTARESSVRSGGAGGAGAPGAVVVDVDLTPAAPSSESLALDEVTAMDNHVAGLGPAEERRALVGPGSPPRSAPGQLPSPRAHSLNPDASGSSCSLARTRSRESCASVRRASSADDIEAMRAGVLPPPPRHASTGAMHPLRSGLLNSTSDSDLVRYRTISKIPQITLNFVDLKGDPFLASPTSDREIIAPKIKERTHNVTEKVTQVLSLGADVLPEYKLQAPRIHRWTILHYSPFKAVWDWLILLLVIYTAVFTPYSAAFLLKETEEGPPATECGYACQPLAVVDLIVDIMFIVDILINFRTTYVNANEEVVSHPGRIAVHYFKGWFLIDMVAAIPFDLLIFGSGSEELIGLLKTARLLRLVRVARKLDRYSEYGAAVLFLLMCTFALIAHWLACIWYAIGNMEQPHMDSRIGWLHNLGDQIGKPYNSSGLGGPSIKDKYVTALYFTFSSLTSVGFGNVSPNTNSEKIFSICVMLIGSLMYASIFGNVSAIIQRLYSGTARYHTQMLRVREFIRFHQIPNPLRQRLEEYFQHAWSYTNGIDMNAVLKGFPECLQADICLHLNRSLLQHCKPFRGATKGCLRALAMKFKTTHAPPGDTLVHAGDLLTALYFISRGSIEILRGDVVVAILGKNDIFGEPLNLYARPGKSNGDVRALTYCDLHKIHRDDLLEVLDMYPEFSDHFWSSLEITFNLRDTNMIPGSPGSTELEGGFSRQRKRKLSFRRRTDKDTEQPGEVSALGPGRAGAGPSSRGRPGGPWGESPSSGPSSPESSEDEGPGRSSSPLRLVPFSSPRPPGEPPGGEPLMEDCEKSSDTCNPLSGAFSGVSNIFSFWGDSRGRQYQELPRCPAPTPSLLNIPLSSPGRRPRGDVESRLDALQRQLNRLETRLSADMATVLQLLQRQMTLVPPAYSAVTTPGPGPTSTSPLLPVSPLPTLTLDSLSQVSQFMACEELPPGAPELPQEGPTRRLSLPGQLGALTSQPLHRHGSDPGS

[8] = biological target: cGMP-inhibited 3',5'-cyclic phosphodiesterase 3A (Homo sapiens, UniProt Q14432); format: functional
cGMP-inhibited 3',5'-cyclic phosphodiesterase 3A, sequence (Q14432 whole entry): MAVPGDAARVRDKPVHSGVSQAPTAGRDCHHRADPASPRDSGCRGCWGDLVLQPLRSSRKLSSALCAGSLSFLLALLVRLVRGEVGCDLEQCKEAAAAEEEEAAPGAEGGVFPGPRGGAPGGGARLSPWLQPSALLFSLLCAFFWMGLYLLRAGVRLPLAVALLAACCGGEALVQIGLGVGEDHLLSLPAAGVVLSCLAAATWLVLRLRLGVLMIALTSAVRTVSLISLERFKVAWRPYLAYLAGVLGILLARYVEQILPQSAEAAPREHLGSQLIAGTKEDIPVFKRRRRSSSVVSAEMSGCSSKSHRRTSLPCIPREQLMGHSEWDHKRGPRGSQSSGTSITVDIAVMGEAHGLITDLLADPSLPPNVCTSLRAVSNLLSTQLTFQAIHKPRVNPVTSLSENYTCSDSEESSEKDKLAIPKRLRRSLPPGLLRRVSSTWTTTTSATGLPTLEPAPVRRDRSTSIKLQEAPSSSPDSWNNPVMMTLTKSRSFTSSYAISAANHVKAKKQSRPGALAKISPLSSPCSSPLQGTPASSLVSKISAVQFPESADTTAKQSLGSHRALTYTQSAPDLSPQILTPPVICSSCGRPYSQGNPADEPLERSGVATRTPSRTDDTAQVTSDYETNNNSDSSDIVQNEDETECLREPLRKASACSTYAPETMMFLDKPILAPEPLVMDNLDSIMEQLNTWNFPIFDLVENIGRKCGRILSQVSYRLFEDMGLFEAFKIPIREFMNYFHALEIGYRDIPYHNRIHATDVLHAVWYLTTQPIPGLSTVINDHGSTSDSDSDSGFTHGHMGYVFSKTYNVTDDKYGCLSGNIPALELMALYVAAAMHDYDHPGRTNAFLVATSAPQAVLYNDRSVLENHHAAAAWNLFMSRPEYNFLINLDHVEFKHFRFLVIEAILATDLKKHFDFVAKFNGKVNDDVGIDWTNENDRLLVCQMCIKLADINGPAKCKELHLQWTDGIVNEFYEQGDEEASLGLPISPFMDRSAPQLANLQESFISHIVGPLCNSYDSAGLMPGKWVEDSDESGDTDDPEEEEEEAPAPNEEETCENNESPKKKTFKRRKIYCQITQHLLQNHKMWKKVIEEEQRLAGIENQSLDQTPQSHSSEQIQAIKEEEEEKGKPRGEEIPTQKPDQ

[9] = biological target: T1, Alpha-1A adrenergic receptor; format: functional, cell-based; remark: listed apart in the source
Progesterone receptor = biological target: T4, Progesterone receptor (Homo sapiens, UniProt P06401)
T4 sequence (P06401 whole entry): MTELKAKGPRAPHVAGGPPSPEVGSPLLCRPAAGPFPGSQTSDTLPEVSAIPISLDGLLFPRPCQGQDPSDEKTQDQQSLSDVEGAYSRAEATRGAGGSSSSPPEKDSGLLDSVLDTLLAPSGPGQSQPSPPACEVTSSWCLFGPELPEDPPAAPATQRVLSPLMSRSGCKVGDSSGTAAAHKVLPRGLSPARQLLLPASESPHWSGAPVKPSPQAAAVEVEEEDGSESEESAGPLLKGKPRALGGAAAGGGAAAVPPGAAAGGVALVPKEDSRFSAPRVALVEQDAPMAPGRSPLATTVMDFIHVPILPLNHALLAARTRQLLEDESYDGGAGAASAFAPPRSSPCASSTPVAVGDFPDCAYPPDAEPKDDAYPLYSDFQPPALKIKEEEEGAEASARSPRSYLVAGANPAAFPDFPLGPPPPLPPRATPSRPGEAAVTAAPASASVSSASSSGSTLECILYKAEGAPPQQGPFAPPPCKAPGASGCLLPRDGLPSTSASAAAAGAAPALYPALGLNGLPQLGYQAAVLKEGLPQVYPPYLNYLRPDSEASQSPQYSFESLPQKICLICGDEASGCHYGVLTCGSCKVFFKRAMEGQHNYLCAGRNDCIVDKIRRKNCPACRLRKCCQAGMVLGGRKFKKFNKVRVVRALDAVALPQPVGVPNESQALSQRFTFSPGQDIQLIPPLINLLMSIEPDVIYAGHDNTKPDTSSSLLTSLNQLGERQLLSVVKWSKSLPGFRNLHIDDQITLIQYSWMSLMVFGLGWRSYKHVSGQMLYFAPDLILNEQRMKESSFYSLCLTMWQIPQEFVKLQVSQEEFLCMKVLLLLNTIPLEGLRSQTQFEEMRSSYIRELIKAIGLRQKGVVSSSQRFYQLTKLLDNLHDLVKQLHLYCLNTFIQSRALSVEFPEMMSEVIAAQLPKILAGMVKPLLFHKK

[10] = biological target: Sodium-dependent serotonin transporter (Homo sapiens, UniProt P31645)
Sodium-dependent serotonin transporter, sequence (P31645 whole entry): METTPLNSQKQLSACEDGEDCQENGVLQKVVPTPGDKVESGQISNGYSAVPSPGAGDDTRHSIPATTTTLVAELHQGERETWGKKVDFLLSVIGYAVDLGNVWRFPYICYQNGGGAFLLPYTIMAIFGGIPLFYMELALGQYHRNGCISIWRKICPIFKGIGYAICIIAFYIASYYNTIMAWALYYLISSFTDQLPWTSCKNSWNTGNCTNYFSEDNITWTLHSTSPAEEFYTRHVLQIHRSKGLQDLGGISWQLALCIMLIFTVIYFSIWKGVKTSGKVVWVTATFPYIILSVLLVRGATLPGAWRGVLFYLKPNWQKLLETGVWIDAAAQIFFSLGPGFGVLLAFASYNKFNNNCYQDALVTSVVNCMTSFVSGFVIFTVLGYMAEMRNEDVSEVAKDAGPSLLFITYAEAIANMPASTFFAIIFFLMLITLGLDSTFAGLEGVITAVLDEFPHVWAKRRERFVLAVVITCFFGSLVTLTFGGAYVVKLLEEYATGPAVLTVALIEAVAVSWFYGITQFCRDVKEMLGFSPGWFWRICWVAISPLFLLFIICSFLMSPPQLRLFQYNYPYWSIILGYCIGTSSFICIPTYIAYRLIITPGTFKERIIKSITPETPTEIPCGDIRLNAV

[11] = biological target: 3',5'-cyclic-AMP phosphodiesterase 4A (Homo sapiens, UniProt P27815); format: functional
3',5'-cyclic-AMP phosphodiesterase 4A, sequence (P27815 whole entry): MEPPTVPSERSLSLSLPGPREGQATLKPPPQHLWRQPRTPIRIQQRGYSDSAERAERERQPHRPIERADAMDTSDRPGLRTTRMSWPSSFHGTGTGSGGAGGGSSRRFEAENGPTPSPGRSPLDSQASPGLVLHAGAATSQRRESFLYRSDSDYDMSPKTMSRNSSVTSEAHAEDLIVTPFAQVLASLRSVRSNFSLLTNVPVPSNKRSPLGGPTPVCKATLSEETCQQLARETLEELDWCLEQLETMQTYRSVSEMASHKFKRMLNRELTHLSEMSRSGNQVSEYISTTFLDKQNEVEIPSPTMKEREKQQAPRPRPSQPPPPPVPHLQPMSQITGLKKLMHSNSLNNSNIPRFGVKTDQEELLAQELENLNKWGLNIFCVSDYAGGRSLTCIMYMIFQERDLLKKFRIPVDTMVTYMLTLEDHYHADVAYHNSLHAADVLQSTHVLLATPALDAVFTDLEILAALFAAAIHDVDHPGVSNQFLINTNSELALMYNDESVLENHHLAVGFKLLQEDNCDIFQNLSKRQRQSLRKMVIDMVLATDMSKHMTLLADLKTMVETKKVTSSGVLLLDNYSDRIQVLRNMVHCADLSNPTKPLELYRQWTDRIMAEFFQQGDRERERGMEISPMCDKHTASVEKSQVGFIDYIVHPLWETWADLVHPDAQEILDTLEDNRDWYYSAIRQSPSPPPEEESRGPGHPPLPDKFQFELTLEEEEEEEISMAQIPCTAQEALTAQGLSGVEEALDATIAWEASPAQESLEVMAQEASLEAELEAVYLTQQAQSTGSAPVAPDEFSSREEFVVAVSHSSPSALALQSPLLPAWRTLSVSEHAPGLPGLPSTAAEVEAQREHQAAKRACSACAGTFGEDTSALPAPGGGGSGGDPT

Adenosine receptor A3 [12] = biological target: T3, Adenosine receptor A3; remark: listed apart in the source
Further: assay procedure not described here.

C[C@]1(COc2ccc(N3CCC(Oc4ccc(OC(F)(F)F)cc4)CC3)cc2)Cn2cc([N+](=O)[O-])nc2O1
AC50 [1]: > 30 µM | AC50 [2]: > 10 µM | AC50 [3]: > 30 µM | AC50 [4]: 27.9 µM | AC50 (Estrogen receptor): > 30 µM | AC50 (Adenosine receptor A3 [5]): > 30 µM | AC50 [6]: > 30 µM | AC50 [7]: > 30 µM | AC50 [8]: > 30 µM | AC50 [9]: > 30 µM | AC50 (Progesterone receptor): > 30 µM | AC50 [10]: 2.02 µM | AC50 [11]: > 30 µM

CCCCCCCC(=O)N[C@H](CN1CCCC1)[C@H](O)c1ccc2c(c1)OCCO2
AC50 [3]: > 30 µM | AC50 [4]: 10.1 µM | AC50 (Estrogen receptor): > 30 µM | AC50 [6]: > 30 µM | AC50 [8]: > 30 µM | AC50 (Progesterone receptor): > 30 µM | AC50 [10]: > 30 µM | AC50 [11]: > 30 µM

O=C(Nc1nc(-c2cc(Cl)cs2)c(N2CCN(C3CCCCC3)CC2)s1)c1cnc(N2CCC(C(=O)O)CC2)c(Cl)c1 [AVATROMBOPAG]
AC50 [2]: > 10 µM | AC50 [3]: > 30 µM | AC50 [4]: > 30 µM | AC50 (Estrogen receptor): > 30 µM | AC50 (Adenosine receptor A3 [5]): > 10 µM | AC50 [6]: > 30 µM | AC50 [7]: 12.4 µM | AC50 [8]: > 30 µM | AC50 (Progesterone receptor): > 30 µM | AC50 [10]: > 30 µM | AC50 [11]: > 30 µM

Cc1onc(-c2c(Cl)cccc2Cl)c1C(=O)N[C@@H]1C(=O)N2[C@@H]1SC(C)(C)[C@@H]2C(=O)O [DICLOXACILLIN]
AC50 [1]: > 30 µM | AC50 (Adenosine receptor A3 [12]): > 30 µM | AC50 [3]: > 30 µM | AC50 [4]: > 30 µM | AC50 [6]: > 30 µM | AC50 [7]: > 30 µM | AC50 [8]: > 30 µM | AC50 [9]: > 30 µM | AC50 (Progesterone receptor): > 30 µM | AC50 [10]: > 30 µM | AC50 [11]: > 30 µM

CCC(=O)O[C@@H]1CC(=O)O[C@H](C)C/C=C/C=C/[C@H](OC(C)=O)[C@H](C)C[C@H](CC=O)[C@H](O[C@@H]2O[C@H](C)[C@@H](O[C@H]3C[C@@](C)(OC(C)=O)[C@@H](OC(=O)CC)[C@H](C)O3)[C@H](N(C)C)[C@H]2O)[C@H]1OC [MIOCAMYCIN]
AC50 [3]: > 30 µM | AC50 [4]: > 30 µM | AC50 (Estrogen receptor): > 30 µM | AC50 [6]: > 30 µM | AC50 [8]: > 30 µM | AC50 (Progesterone receptor): > 30 µM | AC50 [10]: > 30 µM | AC50 [11]: > 30 µM

CCSc1ccc2c(c1)N(CCCN1CCN(C)CC1)c1ccccc1S2 [THIETHYLPERAZINE]
AC50 (Adenosine receptor A3 [12]): 6.62 µM | AC50 [3]: > 30 µM | AC50 [4]: > 0.3 µM | AC50 (Estrogen receptor): > 30 µM | AC50 (Adenosine receptor A3 [5]): > 10 µM | AC50 [6]: 3.87 µM | AC50 [7]: 1.2 µM | AC50 [8]: > 30 µM | AC50 [9]: 24.7 µM | AC50 (Progesterone receptor): 24.4 µM | AC50 [10]: 4.88 µM | AC50 [11]: > 30 µM

CCN(CC)CCOC(=O)C(Cc1cccc2ccccc12)CC1CCCO1 (stereo not given) [NAFRONYL]
AC50 [1]: > 30 µM | AC50 (Adenosine receptor A3 [12]): > 30 µM | AC50 [3]: > 30 µM | AC50 [4]: > 30 µM | AC50 [6]: > 30 µM | AC50 [7]: 6.9 µM | AC50 [8]: > 30 µM | AC50 [9]: > 30 µM | AC50 (Progesterone receptor): > 30 µM | AC50 [10]: 28.4 µM | AC50 [11]: > 30 µM

CO[C@H]1/C=C/O[C@@]2(C)Oc3c(C)c(O)c4c(O)c(cc(O)c4c3C2=O)NC(=O)/C(C)=C\C=C\[C@H](C)[C@H](O)[C@@H](C)[C@@H](O)[C@@H](C)[C@H](OC(C)=O)[C@@H]1C [RIFAMYCIN]
AC50 (Adenosine receptor A3 [12]): > 30 µM | AC50 [3]: > 30 µM | AC50 [4]: > 30 µM | AC50 (Estrogen receptor): > 30 µM | AC50 [6]: > 30 µM | AC50 [7]: > 30 µM | AC50 [8]: > 30 µM | AC50 [9]: 8.13 µM | AC50 (Progesterone receptor): > 30 µM | AC50 [10]: > 30 µM | AC50 [11]: > 30 µM
